Results: the supplement of paper PMC10627819

Columns and labels:
[1] = system: B. subtilis 168; assay: fitness (endpoint OD595 vs no drug) (fraction); higher = more growth
Outline: (§1)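 Fitness compares growth at the stationary-phase transition with the robust mean of no-drug control wells, as a ratio of optical densities. The ratio is capped at 1. Wells of 384-well plates held 30 µl, or 55 µl for S. pneumoniae, inoculated at OD595 0.01. Readings at OD595 every 30 min for 14 h at 37 °C were corrected against the first reading.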

[2] = system: S. aureus DSM 20231; assay: as above
Outline: as §1

[3] = system: S. aureus Newman; assay: as above
Outline: as §1

[4] = system: S. pneumoniae D39V; assay: as above
Outline: as §1

[5] = system: B. subtilis 168; assay: Bliss interaction score (quartile over a dose matrix) (fitness difference); higher = more antagonism (negative = synergy)
Outline: (§2)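 Fitness was defined as normalised growth: OD595 at the start of stationary phase divided by the plate's robust no-drug mean and capped at 1. Single-drug fitness was inferred from combination measurements. The Bliss score is observed fitness minus the product of the single-drug values, summarised by quartiles across technical, biological and donor/recipient replicates.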

[6] = system: S. aureus DSM 20231; assay: as above
Outline: as §2

[7] = system: S. aureus Newman; assay: as above
Outline: as §2

[8] = system: S. pneumoniae D39V; assay: as above
Outline: as §2
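Throughout, for Bliss interaction score (quartile over a dose matrix): first quartile when negative (synergy) and third quartile when positive (antagonism).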
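Throughout, for fitness (endpoint OD595 vs no drug): OD595 on entry to stationary phase over no-drug wells; at most 1.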

CO/N=C(\C(=O)N[C@@H]1C(=O)N2C(C(=O)O)=C(COC(C)=O)CS[C@H]12)c1csc(N)n1 [Cefotaxime] + Cc1ncc([N+](=O)[O-])n1CCO [Metronidazole]
fitness, one replicate
Conditions | partner 0.625 µg/mL | partner 0.781 µg/mL | partner 1.25 µg/mL | partner 1.562 µg/mL | partner 2.5 µg/mL | partner 3.124 µg/mL
[1], first compound 0.00775 µg/mL | 0.871 | – | 0.887 | – | 0.851 | –
[1], first compound 0.0155 µg/mL | 0.728 | – | 0.672 | – | 0.707 | –
[1], first compound 0.031 µg/mL | 0.553 | – | 0.576 | – | 0.594 | –
[3], first compound 0.039 µg/mL | 0.888 | – | 0.794 | – | 0.817 | –
[3], first compound 0.078 µg/mL | – | 0.714 | – | 0.756 | – | 0.788
[3], first compound 0.156 µg/mL | – | 0.492 | – | 0.486 | – | 0.529
[3], first compound 0.312 µg/mL | 0.248 | 0.305 | 0.311 | 0.397 | 0.329 | 0.361
[3], first compound 0.625 µg/mL | – | 0.0599 | – | 0.0931 | – | 0.0887
[3], first compound 1.25 µg/mL | – | 0.0419 | – | 0.0637 | – | 0.07
[3], first compound 2.5 µg/mL | – | 0.0362 | – | 0.0976 | – | 0.0571

fitness
Conditions | partner 0.625 µg/mL | partner 1.073 µg/mL | partner 1.25 µg/mL | partner 2.145 µg/mL | partner 2.5 µg/mL | partner 4.29 µg/mL | partner 5 µg/mL
[1], first compound 0.5 µg/mL | 0.299 | – | 0.289 | – | 0.278 | – | –
[1], first compound 1 µg/mL | 0.152 | – | 0.135 | – | 0.146 | – | –
[1], first compound 2 µg/mL | 0.0908 | – | 0.109 | – | 0.108 | – | –
[2], first compound 0.039 µg/mL | 0.825 | – | 0.888 | – | 0.963 | – | –
[2], first compound 0.078 µg/mL | 0.829 | – | 0.828 | – | 0.913 | – | –
[2], first compound 0.156 µg/mL | 0.689 | – | 0.745 | – | 0.813 | – | –
[2], first compound 0.312 µg/mL | 0.621 | – | 0.649 | – | 0.674 | – | –
[3], first compound 0.078 µg/mL | 0.767 | – | 0.779 | – | 0.792 | – | –
[3], first compound 0.156 µg/mL | 0.663 | – | 0.705 | – | 0.674 | – | –
[4], first compound 0.0018 µg/mL | – | 0.976 | 0.963 | 0.928 | 0.996 | 0.972 | 0.975
[4], first compound 0.0035 µg/mL | – | 0.987 | 0.979 | 0.92 | 0.975 | 0.939 | 0.973
[4], first compound 0.007 µg/mL | – | 0.95 | 0.961 | 0.89 | 0.99 | 0.933 | 0.953

Conditions | Bliss interaction score
[5] | 0.0904
[6] | -0.0403
[7] | 0.0437
[8] | 0.0575

CO/N=C(\C(=O)N[C@@H]1C(=O)N2C(C(=O)O)=C(COC(C)=O)CS[C@H]12)c1csc(N)n1 [Cefotaxime] + CC1=C\[C@@H](O)CC(=O)Cc2nc(co2)C(=O)N2CCC=C2C(=O)O[C@H](C(C)C)[C@H](C)/C=C/C(=O)NC\C=C\1 [Virginiamycin M1]
one replicate
Conditions | fitness
[1], first compound 0.00775 µg/mL, partner 0.0625 µg/mL | 0.854
[1], first compound 0.00775 µg/mL, partner 0.125 µg/mL | 0.833
[1], first compound 0.00775 µg/mL, partner 0.25 µg/mL | 0.833
[1], first compound 0.0155 µg/mL, partner 0.0625 µg/mL | 0.695
[1], first compound 0.0155 µg/mL, partner 0.125 µg/mL | 0.683
[1], first compound 0.0155 µg/mL, partner 0.25 µg/mL | 0.673
[1], first compound 0.031 µg/mL, partner 0.0625 µg/mL | 0.554
[1], first compound 0.031 µg/mL, partner 0.125 µg/mL | 0.557
[1], first compound 0.031 µg/mL, partner 0.25 µg/mL | 0.583
[2], first compound 0.039 µg/mL, partner 0.0625 µg/mL | 0.775
[2], first compound 0.039 µg/mL, partner 0.125 µg/mL | 0.779
[2], first compound 0.039 µg/mL, partner 0.25 µg/mL | 0.762
[2], first compound 0.078 µg/mL, partner 0.5 µg/mL | 0.778
[2], first compound 0.078 µg/mL, partner 1 µg/mL | 0.799
[2], first compound 0.156 µg/mL, partner 0.5 µg/mL | 0.742
[2], first compound 0.156 µg/mL, partner 1 µg/mL | 0.699
[2], first compound 0.312 µg/mL, partner 0.5 µg/mL | 0.61
[2], first compound 0.312 µg/mL, partner 1 µg/mL | 0.706
[3], first compound 0.039 µg/mL, partner 0.5 µg/mL | 0.71
[3], first compound 0.039 µg/mL, partner 1 µg/mL | 0.72
[3], first compound 0.039 µg/mL, partner 2 µg/mL | 0.732
[3], first compound 0.078 µg/mL, partner 0.0625 µg/mL | 0.699
[3], first compound 0.078 µg/mL, partner 0.125 µg/mL | 0.716
[3], first compound 0.078 µg/mL, partner 0.25 µg/mL | 0.734
[3], first compound 0.078 µg/mL, partner 0.5 µg/mL | 0.672
[3], first compound 0.078 µg/mL, partner 1 µg/mL | 0.687
[3], first compound 0.078 µg/mL, partner 2 µg/mL | 0.57
[3], first compound 0.156 µg/mL, partner 0.0625 µg/mL | 0.494
[3], first compound 0.156 µg/mL, partner 0.125 µg/mL | 0.468
[3], first compound 0.156 µg/mL, partner 0.25 µg/mL | 0.509
[3], first compound 0.156 µg/mL, partner 0.5 µg/mL | 0.648
[3], first compound 0.156 µg/mL, partner 1 µg/mL | 0.613
[3], first compound 0.156 µg/mL, partner 2 µg/mL | 0.444
[3], first compound 0.312 µg/mL, partner 0.0625 µg/mL | 0.305
[3], first compound 0.312 µg/mL, partner 0.125 µg/mL | 0.326
[3], first compound 0.312 µg/mL, partner 0.25 µg/mL | 0.307
[3], first compound 0.312 µg/mL, partner 0.5 µg/mL | 0.57
[3], first compound 0.312 µg/mL, partner 1 µg/mL | 0.54
[3], first compound 0.312 µg/mL, partner 2 µg/mL | 0.344
[3], first compound 0.625 µg/mL, partner 0.0625 µg/mL | 0.0023
[3], first compound 0.625 µg/mL, partner 0.125 µg/mL | 0.0438
[3], first compound 0.625 µg/mL, partner 0.25 µg/mL | 0.039
[3], first compound 1.25 µg/mL, partner 0.0625 µg/mL | 0.0272
[3], first compound 1.25 µg/mL, partner 0.125 µg/mL | 0.0702
[3], first compound 1.25 µg/mL, partner 0.25 µg/mL | 0.0726
[3], first compound 2.5 µg/mL, partner 0.0625 µg/mL | 0.0428
[3], first compound 2.5 µg/mL, partner 0.125 µg/mL | 0.0329
[3], first compound 2.5 µg/mL, partner 0.25 µg/mL | 0.0641
[4], first compound 0.0018 µg/mL, partner 0.15 µg/mL | ≥ 1
[4], first compound 0.0018 µg/mL, partner 0.3 µg/mL | 0.976
[4], first compound 0.0035 µg/mL, partner 0.15 µg/mL | ≥ 1
[4], first compound 0.0035 µg/mL, partner 0.3 µg/mL | ≥ 1
[4], first compound 0.007 µg/mL, partner 0.15 µg/mL | ≥ 1
[4], first compound 0.007 µg/mL, partner 0.3 µg/mL | 0.952

fitness
Conditions | partner 0.0625 µg/mL | partner 0.125 µg/mL | partner 0.25 µg/mL | partner 0.5 µg/mL | partner 1 µg/mL | partner 2 µg/mL
[1], first compound 0.5 µg/mL | 0.23 | 0.246 | 0.239 | – | – | –
[1], first compound 1 µg/mL | 0.085 | 0.0947 | 0.119 | – | – | –
[1], first compound 2 µg/mL | 0.0507 | 0.082 | 0.0814 | – | – | –
[2], first compound 0.078 µg/mL | 0.678 | 0.784 | 0.776 | – | – | –
[2], first compound 0.156 µg/mL | 0.711 | 0.83 | 0.741 | – | – | –
[2], first compound 0.312 µg/mL | 0.683 | 0.694 | 0.676 | – | – | –
[4], first compound 0.0018 µg/mL | – | – | – | 0.991 | 1 | 0.947
[4], first compound 0.0035 µg/mL | – | – | – | 0.975 | 0.95 | 0.966
[4], first compound 0.007 µg/mL | – | – | – | 0.916 | 0.957 | 0.917

Conditions | Bliss interaction score
[5] | 0.0729
[6] | 0.0452
[7] | -0.0479
[8] | -0.0315
